The values below come from EP1914235A1, “CHIRAL TETRA-HYDRO BETA-CARBOLINE DERIVATIVES AND APPLICATIONS THEREOF AS ANTIPARASITIC COMPOUNDS” (Université de Lille 2 Droit et Santé, priority 2006, dated 2008).

Each structure is given as a SMILES string. Converted amounts (≈) assume the structure as drawn. Like-named read-outs stand apart in the source and are kept apart here.

One experiment concerns P. falciparum K1 strain. Kind of experiment: [3H]hypoxanthine drug sensitivity assay, K1 strain. It counts as cell-based. As to conditions: Plasmodium falciparum. The procedure: (§1) The cultures are naturally asynchronous (65-75% ring stage) and are maintained in continuous log phase growth in RPMI-1640 medium (as developed by Moore et. al. at Roswell Park Memorial Institute, sold by Sigma Aldrich) supplemented with 5% washed human A+ erythrocytes, 25 mM Hepes, […] NaHCO3, and AlbuMAXII (lipid-rich bovine serum albumin) sold GIBCO, Grand Island, NY (CM). All cultures and assays were conducted at 37°C under an atmosphere of 5% CO2 and 5% O2, with a balance of N2.
(§2) The compounds were further diluted to the appropriate concentration using complete medium RPMI-1640 supplemented with 15nM cold hypoxanthine and AlbuMAXII.
(§3) Assays were performed in sterile 96-well microtitre plates; each plate contained 100 µl of parasite culture (0.5% parasitemia, 2.5% hematocrit). Each compound was tested in triplicate and parasite growth compared to control and blank (uninfected erythrocytes) wells. After 24h of incubation at 37°C, […] of [^3H]hypoxanthine was added to each well. Cultures were incubated for a further 24 h before they were harvested onto glass-fiber filter mats. The radioactivity was counted using a Wallac Microbeta® 1450 scintillation counter. The results were recorded as counts per minute (CPM) per well at each compound concentration, control and blank wells. Percentage inhibition was calculated from comparison to blank and control wells, and IC50 values calculated using Microsoft XLFit ® line fitting software (IDBS, UK).
(§4) Both the 3D7 clone and the K1 line were used. The compounds were diluted three-fold over at 12 different concentrations with an appropriate starting concentration based on the preliminary screen. The IC50 was determined by a sigmoidal dose response analysis using Microsoft XLFit™ (IDBS, UK).

Experiment [1] deals with P. falciparum 3D7 clone of NF54. Put plainly: [3H]hypoxanthine drug sensitivity assay, 3D7 clone. It counts as cell-based. As to conditions: Plasmodium falciparum, read-out: IC50 3D7(µg/ml). The procedure: as §1, §2
as §3, with “The results were recorded as counts per minute (CPM) per well at each compound concentration, control and blank wells.” left out
The preliminary screen used the 3D7 strain. The compounds were tested at 6 concentrations (30, 10, 3, 1, 0.3, and 0.1 µg/ml).
as §4

In experiment [2] the test system is Plasmodium berghei ANKA strain. Kind of experiment: In vivo antiparasitic activity in infected mice (4-day dosing, parasitemia on day 5). As to conditions: mice infected with P. berghei ANKA; for Activity at the dose 50 mg/kg (%): 50 mg/kg every day for 4 days. The procedure: Female mice (TFW or BALB/c, specific pathogen free), 18-20 g, or
Infection: Blood was taken from donor mice and diluted in RPMI-1640 medium to a parasitemia of 1% (the equivalent of 1x10^7 infected erythrocytes/ml) whilst kept on ice. An inoculum of 0.2 ml was administered to each mouse by the intravenous route. At 2-4 hours post-inoculation dosing commences.
Evaluation endpoint: On day 5 blood smears of all animals (2 slides/mouse) were prepared, fixed with methanol and stained with 10% Giemsa's stain. Parasitemia was determined microscopically by counting 1000 red blood cells under oil immersion at 1000x magnification.
Each of the tested compounds of formula (I) according to the invention was prepared as a stock solution of 5 mg/ml in 10% DMSO/PBS. Insoluble compounds of formula (I) were milled with stainless steel balls for up to 24 hours to reduce particle size. Fresh dilutions were prepared each day. The route of administration of tested compounds is intra peritoneal (i.p.).
Compounds were formulated at 10 mg/kg or at 50 mg/kg in a standard suspension vehicle (0.5% carboxymethylcellulose, 0.5% benzyl alcohol, 0.4% Tween® 80 in 0.9% NaCl) for both oral and i.p. administration.
Dosing was over a 4 day period as above, and evaluation was also as above.

The mark [3] stands for this setting: P. falciparum 3D7, sensitive to all anti-malarials, 48 h, [3H]hypoxanthine uptake.

`CCN(CC)CCCC(C)Nc1ccnc2cc(Cl)ccc12` (stereo not drawn) [Chloroquine, reference compound] showed an IC50 with P. falciparum K1 strain (K1) of 0.13 to 0.21 µg/mL (≈ 0.406 to 0.656 µM).
In the case of `O=C1[C@H]2Cc3c([nH]c4ccccc34)[C@@H](c3ccc4c(c3)OCO4)N2C(=O)CN1[C@@H]1CCN(Cc2ccccc2)C1` [Compound 6, (6R,12aR)-6-Benzo[1,3]dioxol-5-yl-2-((R)-1-benzyl-pyrrolidin-3-yl)-2,3,6,7,12,12a-hexahydro-pyrazino[1',2':1,6]pyrido [3,4-b] indole-1,4-dione], the IC50 in experiment [1] (setting [3]) came out at 0.1 µg/mL (≈ 0.187 µM); in the experiment on P. falciparum K1 strain (K1, read-out: IC50 K1) it was 0.12 µg/mL (≈ 0.224 µM). Also, the “Activity at the dose 50 mg/kg (%)” value in experiment [2] turned out to be 43%.
Consider `O=C1[C@H]2Cc3c([nH]c4ccccc34)[C@@H](c3ccc4c(c3)OCO4)N2C(=O)CN1C1CCN(Cc2ccccc2)CC1` [Compound 10, (6R,12aR)-6-Benzo[1,3]dioxol-5-yl-2-(1-benzyl-piperidin-4-yl)-2,3,6,7,12,12a-hexahydro-pyrazino[1',2':1,6]pyrido[3,4-b]indole-1,4-dione], for which the IC50 amounted to 0.27 µg/mL (≈ 0.492 µM) in experiment [1] (setting [3]) and 0.01 µg/mL (≈ 0.0182 µM) with P. falciparum K1 strain (K1, read-out: IC50 K1). Besides, in experiment [2] (10 mg/kg every day for 4 days), the “Activity at the dose 10 mg/kg (%)” value turned out to be 15%. Also, the “Activity at the dose 50 mg/kg (%)” value in experiment [2] is recorded as 31%.
In the case of `O=C1[C@H]2Cc3c([nH]c4ccccc34)[C@H](c3ccc4c(c3)OCO4)N2C(=O)CN1[C@@H]1CCN(Cc2ccccc2)C1` [Compound 14, (6S,12aR)-6-Benzo[1,3]dioxol-5-yl-2-((R)-1-benzyl-pyrrolidin-3-yl)-2,3,6,7,12,12a-hexahydro-pyrazino[1',2':1,6]pyrido [3,4-b]indole-1,4-dione], the IC50 in experiment [1] (setting [3]) was 0.29 µg/mL (≈ 0.542 µM); in the experiment on P. falciparum K1 strain (K1, read-out: IC50 K1), 1.03 µg/mL (≈ 1.93 µM).
For `CN(CCN1CC(=O)N2[C@H](c3ccc4c(c3)OCO4)c3[nH]c4ccccc4c3C[C@@H]2C1=O)Cc1ccccc1` [Compound 15, (6R,12aR)-6-Benzo[1,3]dioxol-5-yl-2-[2-(benzyl-methyl-amino)-ethyl]-2,3,6,7,12,12a-hexahydro-pyrazino[1',2':1,6]pyrido [3,4-b]indole-1,4-dione], in that order: 0.6 µg/mL (≈ 1.15 µM) and 0.4 µg/mL (≈ 0.765 µM).
As for `CN(CCN1CC(=O)N2[C@@H](c3ccc4c(c3)OCO4)c3[nH]c4ccccc4c3C[C@@H]2C1=O)Cc1ccccc1` [Compound 16, (6S,12aR)-6-Benzo[1,3]dioxol-5-yl-2-[2-(benzyl-methyl-amino)-ethyl]-2,3,6,7,12,12a-hexahydro-pyrazino[1',2':1,6]pyrido [3,4-b]indole-1,4-dione], the IC50 in experiment [1] came to 0.3 µg/mL (≈ 0.574 µM); in the experiment on P. falciparum K1 strain (K1, read-out: IC50 K1 (µg/ml)), 0.6 µg/mL (≈ 1.15 µM).
For `CN(CCCN1CC(=O)N2[C@H](c3ccc4c(c3)OCO4)c3[nH]c4ccccc4c3C[C@@H]2C1=O)Cc1ccccc1` [Compound 17, (6R,12aR)-6-Benzo[1,3]dioxol-5-yl-2-[3-(benzyl-methyl-amino)-propyl]-2,3,6,7,12,12a-hexahydro-pyrazino[1',2':1,6]pyrido [3,4-b]indole-1,4-dione], the IC50 in experiment [1] (setting [3]) was 0.98 µg/mL (≈ 1.83 µM); in the experiment on P. falciparum K1 strain (K1, read-out: IC50 K1), 0.19 µg/mL (≈ 0.354 µM).
For `CN(CCCN1CC(=O)N2[C@@H](c3ccc4c(c3)OCO4)c3[nH]c4ccccc4c3C[C@@H]2C1=O)Cc1ccccc1` [Compound 18, (6S,12aR)-6-Benzo[1,3]dioxol-5-yl-2-[3-(benzyl-methyl-amino)-propyl]-2,3,6,7,12,12a-hexahydro-pyrazino[1',2':1,6]pyrido [3,4-b]indole-1,4-dione], the IC50 in experiment [1] was 1.34 µg/mL (≈ 2.5 µM); in the experiment with P. falciparum K1 strain (K1, read-out: IC50 K1 (µg/ml)), 0.28 µg/mL (≈ 0.522 µM).
For the compound `COc1ccc(CN2CC[C@@H](N3CC(=O)N4[C@H](c5ccc6c(c5)OCO6)c5[nH]c6ccccc6c5C[C@@H]4C3=O)C2)cc1` [Compound 31, (6R,12aR)-6-Benzo[1,3]dioxol-5-yl-2-[(R)-1-(4-methoxy-benzyl)-pyrrolidin-3-yl]-2,3,6,7,12,12a-hexahydro-pyrazino[1',2':1,6]pyrido[3,4-b]indole-1,4-dione], the IC50 in experiment [1] (setting [3]) was determined as 0.23 µg/mL (≈ 0.407 µM); in the experiment with P. falciparum K1 strain (K1, read-out: IC50 K1), 0.13 µg/mL (≈ 0.23 µM).
For `O=C1[C@H]2Cc3c([nH]c4ccccc34)[C@@H](c3ccc4c(c3)OCO4)N2C(=O)CN1[C@@H]1CCN(Cc2ccc3c(c2)OCO3)C1` [Compound 33, (6R,12aR)-6-Benzo[1,3]dioxol-5-yl-2-((R)-1-benzo[1,3]dioxol-5-ylmethyl-pyrrolidin-3-yl)-2,3,6,7,12,12a-hexahydro-pyrazino[1',2':1,6]pyrido[3,4-b]indole-1,4-dione], in that order: 0.17 µg/mL (≈ 0.294 µM) and 0.16 µg/mL (≈ 0.277 µM).
In the same order, the values of `CC(C)(C)OC(=O)NCCN1CC[C@@H](N2CC(=O)N3[C@H](c4ccc5c(c4)OCO5)c4[nH]c5ccccc5c4C[C@@H]3C2=O)C1` [Compound 35, {2-[(R)-3-((6R,12aR)-6-Benzo[1,3]dioxol-5-yl-1,4-dioxo-3,4,6,7,12,12a-hexahydro-1H-pyrazino[1',2':1,6]pyrido[3,4-b]indol-2-yl)-pyrrolidin-1-yl]-ethyl)-carbamic acid tert-butyl ester] are 0.07 µg/mL (≈ 0.119 µM) and 0.015 µg/mL (≈ 0.0255 µM).
For `O=C1[C@H]2Cc3c([nH]c4ccccc34)[C@@H](c3ccc4nsnc4c3)N2C(=O)CN1[C@@H]1CCN(Cc2ccccc2)C1` [Compound 70c, (6R,12aR)-6-Benzo[1,2,5]thiadiazol-5-yl-2-((R)-1-benzyl-pyrrolidin-3-yl)-2,3,6,7,12,12a-hexahydro-pyrazino[1',2':1,6] pyrido[3,4-b]indole-1,4-dione], in that order: 0.13 µg/mL (≈ 0.237 µM) and 0.15 µg/mL (≈ 0.273 µM).
Take `O=C1[C@H]2Cc3c([nH]c4ccccc34)[C@H](c3ccc4nsnc4c3)N2C(=O)CN1[C@@H]1CCN(Cc2ccccc2)C1` [Compound 70t, (6S,12aR)-6-Benzo[1,2,5]thiadiazol-5-yl-2-((R)-1-benzyl-pyrrolidin-3-yl)-2,3,6,7,12,12a-hexahydro-pyrazino[1',2':1,6] pyrido[3,4-b]indole-1,4-dione]: the IC50 came out at 0.7 µg/mL (≈ 1.28 µM) in experiment [1] (setting [3]) and 0.5 µg/mL (≈ 0.911 µM) in the experiment with P. falciparum K1 strain (K1, read-out: IC50 K1).
In the same order, the values of `O=C1[C@H]2Cc3c([nH]c4ccccc34)[C@H](c3ccc(Cl)nc3)N2C(=O)CN1[C@@H]1CCN(Cc2ccccc2)C1` [Compound 84t, (6S,12aR)-2-((R)-1-Benzyl-pyrrolidin-3-yl)-6-(6-chloro-pyridin-3-yl)-2,3,6,7,12,12a-hexahydro-pyrazino[1',2':1,6] pyrido[3,4-b]indole-1,4-dione] are 0.09 µg/mL (≈ 0.171 µM) and 1.03 µg/mL (≈ 1.96 µM).
Take `O=C1[C@H]2Cc3c([nH]c4ccccc34)[C@H](Cc3ccccc3)N2C(=O)CN1C1CCN(Cc2ccccc2)CC1` [Compound 89t, (6S,12aR)-6-Benzyl-2-(1-benzyl-piperidin-4-yl)-2,3,6,7,12,12a-hexahydro-pyrazino[1',2':1,6]pyrido[3,4-b]indole-1,4-dione]: the IC50 in experiment [1] (setting [3]) worked out at 4.17 µg/mL (≈ 8.04 µM); in the experiment on P. falciparum K1 strain (K1, read-out: IC50 K1), 2.47 µg/mL (≈ 4.76 µM).
Consider `O=C1[C@H]2Cc3c([nH]c4ccccc34)[C@@H](c3ccccc3)N2C(=O)CN1C1CCN(Cc2ccccc2)CC1` [Compound 90, (6R,12aR)-2-(1-Benzyl-piperidin-4-yl)-6-phenyl-2,3,6,7,12,12a-hexahydro-pyrazino[1',2':1,6]pyrido[3,4-b]indole-1,4-dione], for which the IC50 in experiment [1] (setting [3]) was determined as 0.48 µg/mL (≈ 0.951 µM); with P. falciparum K1 strain (K1, read-out: IC50 K1), 0.3 µg/mL (≈ 0.594 µM).
With `Cn1ccnc1CN1CCC(N2CC(=O)N3[C@H](Cc4c([nH]c5ccccc45)[C@@H]3Cc3ccccc3)C2=O)CC1` [Compound 91t, (6S,12aR)-6-Benzyl-2-[1-(1-methyl-1H-imidazol-2-ylmethyl)-piperidin-4-yl]-2,3,6,7,12,12a-hexahydro-pyrazino-[1',2':1,6]pyrido[3,4-b]indole-1,4-dione], the IC50 in experiment [1] (setting [3]) is 4.13 µg/mL (≈ 7.9 µM); with P. falciparum K1 strain (K1, read-out: IC50 K1), 4.07 µg/mL (≈ 7.79 µM).
